Laboratory results taken from paper PMC6182381, “Population Pharmacokinetics and Exposure-Response Relationships of Naldemedine” (Pharmaceutical Research, 2018).
Like-named read-outs stand apart in the source and are kept apart here.

Columns and labels:
[1] = system: patients with chronic non-cancer pain and OIC; test: SBM responder, phase 2b study 1107 V9221 (observed and PK/Efficacy logistic model); assay type: in vivo, human; conditions: for SBM responder, Observation / SBM responder, Prediction: 1107V9221 (Phase 2b); for SBM Non_Responder frequency / SBM Responder frequency: PK/efficacy population, 1107 V9221 (Phase 2b); for Predicted probability of SBM responder: Phase 2b model
Source text: (§1) Exposure-response analysis was used to evaluate the efficacy and safety data of the phase 2b and phase 3 studies ([2],[5]). The PK/Efficacy analysis included the subjects of the population PK analysis or in the placebo group, who also had efficacy data for the exposure-response analysis obtained from phase 2b and phase 3 studies (1107 V9221, 1314 V9231, and 1315 V9232). The PK/Safety analysis included the subjects of the population PK analysis or in the placebo group, who also had safety data for exposure-response analysis obtained from phase 2b and phase 3 studies (1107 V9221, 1314 V9231, and 1315 V9232).
(§2) The following efficacy variables were used to evaluate the exposure-response relationship. […] In the phase 3 studies (Study No. 1314 V9231 and 1315 V9232), an SBM responder was defined as having 9 positive response weeks or more out of the 12-weeks treatment period and 3 positive response weeks out of the last 4 weeks of the 12-weeks treatment period. A positive response week was defined as a week with both ≥3 SBMs and an increase of ≥1 SBM from the baseline. A subject with any insufficient response data was treated as a “non-responder”. The occurrence of treatment-emergent adverse events of gastrointestinal disorders as system organ class, which was the most frequently occurring type, was defined by the severity and assessed as safety variables.
(§3) No covariate was tested in the exposure-response analysis because no prognostic factors of the efficacy or safety were identified in the phase 2b and phase 3 studies ([2],[5]). Efficacy and safety data in Study No. 1314 V9231 and 1315 V9232 were combined because these studies were conducted as pivotal phase 3 studies using the same study design and were of the same treatment duration. The individual AUCss values for naldemedine were estimated by empirical Bayes estimation based on the population PK model. AUCss values of the subjects in the placebo group were treated as zero (0). For efficacy (responder or non-responder) and safety (occurrence of gastrointestinal disorders or not) variables, relationships to PK parameters were examined using the logistic model as shown in Eq. (3) with SAS (Version 9.2, SAS Institute).3 Probabilityefficacy or safety event=1/1+exp−a−b×PKparameter where a and b are the parameters to be estimated.

[2] = system: patients with chronic non-cancer pain and OIC; test: SBM responder, phase 3 studies 1314 V9231 and 1315 V9232 (observed and PK/Efficacy logistic model); assay type: in vivo, human; conditions: for Predicted probability of SBM responder: Phase 3 model
Source text: as §1, §2, §3

[3] = system: patients with chronic non-cancer pain and OIC; test: Adverse events / gastrointestinal disorders, phase 2b study 1107 V9221 (observed and PK/Safety logistic model); assay type: in vivo, human; conditions: for Gastrointestinal disorders, Mild / Gastrointestinal disorders, Moderate / Gastrointestinal disorders, Not_Reported / Gastrointestinal disorders, Severe: PK/safety population, 1107 V9221 (Phase 2b); for Predicted probability of gastrointestinal disorders: Phase 2b model; for Predicted probability of gastrointestinal disorders / Gastrointestinal disorders, Observation / Gastrointestinal disorders, Prediction: Moderate, Severe; for Gastrointestinal disorders, Observation / Gastrointestinal disorders, Prediction: Phase 2b
Source text: as §1, §2, §3

[4] = system: patients with chronic non-cancer pain and OIC; test: Adverse events / gastrointestinal disorders, phase 3 studies 1314 V9231 and 1315 V9232 (observed and PK/Safety logistic model); assay type: in vivo, human; conditions: for Predicted probability of gastrointestinal disorders: Phase 3 model
Source text: as §1, §2, §3

[5] = parameters: method as in PMID 28466424, PMID 28960888; conditions: cited from earlier work
[6] = parameters: method as in earlier work; conditions: oral 2 mg [14C]-labeled naldemedine; cited from earlier work
[7] = system: patients with chronic non-cancer pain and OIC; parameters: method as in PMID 28371937; conditions: Study 1107 V9221 (Phase 2b), cited from earlier work
[8] = system: patients with chronic non-cancer pain and OIC; parameters: method as in PMID 28576452; conditions: cited from earlier work
[9] = system: patients with chronic non-cancer pain and OIC; parameters: method as in PMID 28371937; conditions: Phase 2b, cited from earlier work
[10] = 1314V9231 and 1315V9232 (Phase 3), 0.2 mg
[11] = PK/efficacy population, 1314 V9231 and 1315 V9232 (Phase 3), 0.2 mg
[12] = PK/safety population, 1314 V9231 and 1315 V9232 (Phase 3), 0.2 mg
[13] = Phase 3, Mild, Moderate, Severe, 0.2 mg
[14] = Phase 3, Moderate, Severe, 0.2 mg

With `CC(C)(NC(=O)C1=C(O)[C@@H]2Oc3c(O)ccc4c3[C@@]23CCN(CC2CC2)[C@H](C4)[C@]3(O)C1)c1nc(-c2ccccc2)no1` [naldemedine] the “predicted probability of SBM responders” value ([1]; 0.2 mg, phase 2b study 1107 V9221) was 52.7%, the “SBM responder, Observation” value ([1]; 0.1 mg) was 55.6 and the “SBM responder, Prediction” value ([1]; 0.1 mg) was 47.4. For the same compound, the “SBM responder, Observation” value ([1]; 0.2 mg) was 66.7, the “SBM responder, Prediction” value ([1]; 0.2 mg) was 52.7 and the “SBM responder, Observation” value ([1]; 0.4 mg) was 60.0. For the same compound, the “SBM responder, Prediction” value ([1]; 0.4 mg) was 63.0, the “SBM Non_Responder frequency” value ([1]; 0.1 mg) was 4 (44.4) Count (Percent) and the “SBM Responder frequency” value ([1]; 0.1 mg) was 5 (55.6) Count (Percent). The “SBM Non_Responder frequency” value ([1]; 0.2 mg) was 3 (33.3) Count (Percent), the “SBM Responder frequency” value ([1]; 0.2 mg) was 6 (66.7) Count (Percent) and the “SBM Non_Responder frequency” value ([1]; 0.4 mg) was 4 (40.0) Count (Percent). For the same compound, the “SBM Responder frequency” value ([1]; 0.4 mg) was 6 (60.0) Count (Percent), the “Predicted probability of SBM responder” value ([1]; Dose: 0.1 mg) was 0.474 and the “Predicted probability of SBM responder” value ([1]; Dose: 0.2 mg) was 0.527. The “Predicted probability of SBM responder” value ([1]; Dose: 0.4 mg) was 0.630, the “predicted probability of SBM responders” value ([2]; 0.2 mg once daily, phase 2b and phase 3 studies) was “approximately 50%” and the “predicted probability of SBM responders” value ([2]; 0.2 mg, phase 3 studies 1314 V9231 and 1315 V9232) was 49.9%. For the same compound, the “SBM responder, Observation” value [2, 10] was 53.3, the “SBM responder, Prediction” value [2, 10] was 49.9 and the “SBM Non_Responder frequency” value [2, 11] was 208 (46.7) Count (Percent). For the same compound, the “SBM Responder frequency” value [2, 11] was 237 (53.3) Count (Percent), the “Predicted probability of SBM responder” value ([2]; Dose: 0.1 mg) was 0.433 and the “Predicted probability of SBM responder” value ([2]; Dose: 0.2 mg) was 0.499. For the same compound, the “Predicted probability of SBM responder” value ([2]; Dose: 0.4 mg) was 0.630, the “Gastrointestinal disorders, Mild” value ([3]; 0.1 mg) was 1 (11.1) Count (Row percent) and the “Gastrointestinal disorders, Moderate” value ([3]; 0.1 mg) was 1 (11.1) Count (Row percent). The “Gastrointestinal disorders, Not_Reported” value ([3]; 0.1 mg) was 7 (77.8) Count (Row percent), the “Gastrointestinal disorders, Severe” value ([3]; 0.1 mg) was 0 (0.0) Count (Row percent) and the “Gastrointestinal disorders, Mild” value ([3]; 0.2 mg) was 1 (11.1) Count (Row percent). For the same compound, the “Gastrointestinal disorders, Moderate” value ([3]; 0.2 mg) was 3 (33.3) Count (Row percent), the “Gastrointestinal disorders, Not_Reported” value ([3]; 0.2 mg) was 5 (55.6) Count (Row percent) and the “Gastrointestinal disorders, Severe” value ([3]; 0.2 mg) was 0 (0.0) Count (Row percent). For the same compound, the “Gastrointestinal disorders, Mild” value ([3]; 0.4 mg) was 2 (20.0) Count (Row percent), the “Gastrointestinal disorders, Moderate” value ([3]; 0.4 mg) was 1 (10.0) Count (Row percent) and the “Gastrointestinal disorders, Not_Reported” value ([3]; 0.4 mg) was 7 (70.0) Count (Row percent). The “Gastrointestinal disorders, Severe” value ([3]; 0.4 mg) was 0 (0.0) Count (Row percent), the “Predicted probability of gastrointestinal disorders” value ([3]; Mild, Dose: 0.1 mg) was 0.195 and the “Predicted probability of gastrointestinal disorders” value ([3]; Mild, Dose: 0.2 mg) was 0.254. The “Predicted probability of gastrointestinal disorders” value ([3]; Mild, Dose: 0.4 mg) was 0.403, the “Predicted probability of gastrointestinal disorders” value ([3]; Dose: 0.1 mg) was 0.078 and the “Predicted probability of gastrointestinal disorders” value ([3]; Dose: 0.2 mg) was 0.101. The “Predicted probability of gastrointestinal disorders” value ([3]; Dose: 0.4 mg) was 0.165, the “Gastrointestinal disorders, Observation” value ([3]; Mild, 0.1 mg) was 22.2 and the “Gastrointestinal disorders, Prediction” value ([3]; Mild, 0.1 mg) was 19.5. The “Gastrointestinal disorders, Observation” value ([3]; Mild, 0.2 mg) was 44.4, the “Gastrointestinal disorders, Prediction” value ([3]; Mild, 0.2 mg) was 25.4 and the “Gastrointestinal disorders, Observation” value ([3]; Mild, 0.4 mg) was 30.0. For the same compound, the “Gastrointestinal disorders, Prediction” value ([3]; Mild, 0.4 mg) was 40.3, the “Gastrointestinal disorders, Observation” value ([3]; 0.1 mg) was 11.1 and the “Gastrointestinal disorders, Prediction” value ([3]; 0.1 mg) was 7.8. For the same compound, the “Gastrointestinal disorders, Observation” value ([3]; 0.2 mg) was 33.3, the “Gastrointestinal disorders, Prediction” value ([3]; 0.2 mg) was 10.1 and the “Gastrointestinal disorders, Observation” value ([3]; 0.4 mg) was 10.0. The “Gastrointestinal disorders, Prediction” value ([3]; 0.4 mg) was 16.5, the “predicted probability of severe gastrointestinal disorders” value ([4]; 0.2 mg and 0.4 mg, phase 3 study) was “less than 3%” and the “predicted probability of severe gastrointestinal disorders” value ([4]; 0.2 mg once daily) was “less than 3%”. For the same compound, the “predicted probability of mild to severe gastrointestinal disorders” value ([4]; 0.2 mg, phase 3) was 19.3%, the “predicted probability of moderate to severe gastrointestinal disorders” value ([4]; 0.2 mg, phase 3) was 8.3% and the “predicted probability of severe gastrointestinal disorders” value ([4]; 0.2 mg, phase 3) was 1.8%. The “Gastrointestinal disorders, Mild” value [4, 12] was 52 (11.7) Count (Row percent), the “Gastrointestinal disorders, Moderate” value [4, 12] was 34 (7.6) Count (Row percent) and the “Gastrointestinal disorders, Not_Reported” value [4, 12] was 351 (78.9) Count (Row percent). The “Gastrointestinal disorders, Severe” value [4, 12] was 8 (1.8) Count (Row percent), the “Gastrointestinal disorders, Observation” value [4, 13] was 21.1 and the “Gastrointestinal disorders, Prediction” value [4, 13] was 19.3. For the same compound, the “Gastrointestinal disorders, Observation” value [4, 14] was 9.4, the “Gastrointestinal disorders, Prediction” value [4, 14] was 8.3 and the “Gastrointestinal disorders, Observation” value ([4]; Phase 3, Severe, 0.2 mg) was 1.8. The “Gastrointestinal disorders, Prediction” value ([4]; Phase 3, Severe, 0.2 mg) was 1.8, the “Predicted probability of gastrointestinal disorders” value ([4]; Mild, Moderate, Severe, Dose: 0.1 mg) was 0.172 and the “Predicted probability of gastrointestinal disorders” value ([4]; Mild, Moderate, Severe, Dose: 0.2 mg) was 0.193. For the same compound, the “Predicted probability of gastrointestinal disorders” value ([4]; Mild, Moderate, Severe, Dose: 0.4 mg) was 0.242, the “Predicted probability of gastrointestinal disorders” value ([4]; Moderate, Severe, Dose: 0.1 mg) was 0.071 and the “Predicted probability of gastrointestinal disorders” value ([4]; Moderate, Severe, Dose: 0.2 mg) was 0.083. The “Predicted probability of gastrointestinal disorders” value ([4]; Moderate, Severe, Dose: 0.4 mg) was 0.113, the “Predicted probability of gastrointestinal disorders” value ([4]; Severe, Dose: 0.1 mg) was 0.015 and the “Predicted probability of gastrointestinal disorders” value ([4]; Severe, Dose: 0.2 mg) was 0.018. For the same compound, the “Predicted probability of gastrointestinal disorders” value ([4]; Severe, Dose: 0.4 mg) was 0.027, the “time dependence of PK” value ([5]; AUC Day 1 vs AUCss Day 10, multiple dose study) was “time-independent” and the “dose proportionality of systemic exposure” value ([5]; dose range 0.1 mg to 100 mg) was “almost dose proportional”. For the same compound, the “time to reach steady state” value ([5]; multiple dose study, 3 mg, 10 mg and 30 mg, trough Days 2 to 10) was ≤ 2 days, the “total radioactivity excreted in feces” value [6] was 35 % of the administered dose and the “total radioactivity excreted in urine” value [6] was 57 % of the administered dose. The “proportion of SBM responders” value ([7]; 0.1 mg) was 52.5%, the “proportion of SBM responders” value ([7]; 0.2 mg) was 71.2% and the “proportion of SBM responders” value ([7]; 0.4 mg) was 66.7%. For the same compound, the proportion of responders ([8]; Study 1314 V9231 (Phase 3)) was 47.6%, the proportion of responders ([8]; Study 1315 V9232 (Phase 3)) was 52.5% and the Treatment-emergent adverse events ([9]; 0.1 mg) was 66.1%. For the same compound, the Treatment-emergent adverse events ([9]; 0.2 mg) was 67.2% and the Treatment-emergent adverse events ([9]; 0.4 mg) was 78.6%.
